Assay results published in patent US20140248221A1, “COMPOSITIONS FOR ORAL USE AND METHODS FOR TREATING THE ORAL MUCOSA, LIPS, AND PERIORAL REGIONS” (JR CHEM, LLC, priority 2011, published 2014).

Test: zone of inhibition activity
Type: cell-based
Settings: compared with zn bacitracin

With Cu-zn bacitrate the “zone of inhibition activity” value was “greater zone of inhibition activity than zn bacitracin”.
